For the assay, the target named is recombinant His-tag Wip1(2-420) protein (amino acids #2-420) (Homo sapiens (Human), UniProt O15297). The assay is described as follows: Wip1(2-420) phosphatase enzyme FDP assay. Format: biochemical. To be noted: fluorescein diphosphate (FDP) substrate, RT 2 hours, fluorescence Ex485/Em535; read-out: WIP1 (Truncated 2-420) FDP Assay: IC50.

The text below walks through data of patent US20240116910A1, “Heterocycles as WIP1 Inhibitors” (PMV Pharmaceuticals, Inc., priority 2022, published 2024).

For orientation: IC50 means the point on the concentration scale where inhibition reaches its midpoint.

Sequence of recombinant His-tag Wip1(2-420) protein (amino acids #2-420) (O15297 2-420): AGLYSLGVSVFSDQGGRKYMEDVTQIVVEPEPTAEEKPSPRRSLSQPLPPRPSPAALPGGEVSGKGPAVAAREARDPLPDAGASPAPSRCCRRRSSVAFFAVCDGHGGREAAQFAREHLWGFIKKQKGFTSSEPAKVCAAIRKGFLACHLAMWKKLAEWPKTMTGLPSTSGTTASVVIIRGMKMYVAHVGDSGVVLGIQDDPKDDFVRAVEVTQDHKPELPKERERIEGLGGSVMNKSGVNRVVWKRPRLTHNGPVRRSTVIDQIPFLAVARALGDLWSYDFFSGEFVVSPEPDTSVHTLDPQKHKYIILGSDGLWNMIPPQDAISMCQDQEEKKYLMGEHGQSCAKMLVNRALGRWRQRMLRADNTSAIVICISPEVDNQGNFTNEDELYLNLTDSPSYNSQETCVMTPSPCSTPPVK

On to `Cc1ncc(Cl)cc1N[C@H](Cc1ccc(F)cc1)c1ccc(C(=O)N[C@@H](CC2CCCC2)C(=O)NC2CC2)s1` [Compound 222, (2S)-2-({5-[(1R)-1-[(5-chloro-2-methylpyridin-3-yl)amino]-2-(4-fluorophenyl)ethyl]thiophen-2-yl}formamido)-3-cyclopentyl-N-cyclopropylpropanamide], for which the IC50 was 0.068 µM. In the case of `Cc1ncc(Cl)cc1N[C@@H](Cc1ccc(F)cc1)c1ccc(C(=O)N[C@@H](CC2CCCC2)C(=O)NC2CC2)s1` [Compound 223, (2S)-2-({5-[(1S)-1-[(5-chloro-2-methylpyridin-3-yl)amino]-2-(4-fluorophenyl)ethyl]thiophen-2-yl}formamido)-3-cyclopentyl-N-cyclopropylpropanamide], the IC50 worked out at 0.011 µM. Consider `Cc1ncc(Cl)cc1NC(c1ccc(C(=O)N[C@@H](CC2CCCC2)C(=O)NC2CC2)s1)C(F)(F)F` (stereo partly drawn) [Compound 224, (2S)-2-[(5-{1-[(5-chloro-2-methylpyridin-3-yl)amino]-2,2,2-trifluoroethyl}thiophen-2-yl)formamido]-3-cyclopentyl-N-cyclopropylpropanamide], for which the IC50 was determined as 0.132 µM. In the case of `Cc1ncc(Cl)cc1NC(c1ccc(C(=O)N[C@@H](CC2CCCC2)C(=O)NC23CC(C2)C3)s1)C(F)(F)F` (stereo partly drawn) [Compound 225, (2S)-N-{bicyclo[1.1.1]pentan-1-yl}-2-[(5-{1-[(5-chloro-2-methylpyridin-3-yl)amino]-2,2,2-trifluoroethyl}thiophen-2-yl)formamido]-3-cyclopentylpropanamide] it was 0.089 µM; in that of `COCc1ncc(Cl)cc1N[C@@H](C)c1ccc(C(=O)N[C@@H](CC2CCCC2)C(=O)NC2CC2)s1` [Compound 226, (2S)-2-({5-[(1S)-1-{[5-chloro-2-(methoxymethyl)pyridin-3-yl]amino}ethyl]thiophen-2-yl}formamido)-3-cyclopentyl-N-cyclopropylpropanamide], 0.011 µM; in that of `Cc1ncc(Cl)cc1N[C@@H](C)c1ccc(C(=O)N[C@@H](CC2CCCC2)C(=O)Nc2cn[nH]c2)s1` [Compound 227, (2S)-2-({5-[(1S)-1-[(5-chloro-2-methylpyridin-3-yl)amino]ethyl]thiophen-2-yl}formamido)-3-cyclopentyl-N-(1H-pyrazol-4-yl)propanamide], 0.008 µM.

With `C[C@H](Nc1cc(Cl)cnc1C(N)=O)c1ccc(C(=O)N[C@@H](CC2CCCC2)C(=O)NC2CC2)s1` [Compound 228, 5-chloro-3-{[(1S)-1-(5-{[(1S)-2-cyclopentyl-1-(cyclopropylcarbamoyl)ethyl]carbamoyl}thiophen-2-yl)ethyl]amino}pyridine-2-carboxamide], the IC50 was 0.005 µM. Regarding `CC(Nc1cc(Cl)ccc1C(C)(C)O)c1ccc(C(=O)N[C@@H](CC2CCCC2)C(=O)NC2CC2)s1` (stereo partly drawn) [Compound 229, (2S)-2-{[5-(1-{[5-chloro-2-(2-hydroxypropan-2-yl)phenyl]amino}ethyl)thiophen-2-yl]formamido}-3-cyclopentyl-N-cyclopropylpropanamide], the IC50 was found to be 0.02 µM. In the case of `C[C@@H](Nc1cc(Cl)cnc1-c1cccc(Cl)c1)c1ccc(C(=O)N[C@@H](CC2CCCC2)C(=O)NC2CC2)s1` [Compound 230, (2S)-2-({5-[(1R)-1-{[5-chloro-2-(3-chlorophenyl)pyridin-3-yl]amino}ethyl]thiophen-2-yl}formamido)-3-cyclopentyl-N-cyclopropylpropanamide] it was 0.196 µM; in that of `C[C@H](Nc1cc(Cl)cnc1-c1cccc(Cl)c1)c1ccc(C(=O)N[C@@H](CC2CCCC2)C(=O)NC2CC2)s1` [Compound 231, (2S)-2-({5-[(1S)-1-{[5-chloro-2-(3-chlorophenyl)pyridin-3-yl]amino}ethyl]thiophen-2-yl}formamido)-3-cyclopentyl-N-cyclopropylpropanamide], 0.008 µM; in that of `C[C@H](Nc1cc(Cl)cnc1-c1cccnc1)c1ccc(C(=O)N[C@@H](CC2CCCC2)C(=O)NC2CC2)s1` [Compound 232, (2S)-2-({5-[(1S)-1-({5-chloro-[2,3′-bipyridin]-3-yl}amino)ethyl]thiophen-2-yl}formamido)-3-cyclopentyl-N-cyclopropylpropanamide], 0.013 µM. Take `C[C@@H](Nc1cc(Cl)cnc1-c1cccnc1)c1ccc(C(=O)N[C@@H](CC2CCCC2)C(=O)NC2CC2)s1` [Compound 233, (2S)-2-({5-[(1R)-1-({5-chloro-[2,3′-bipyridin]-3-yl}amino)ethyl]thiophen-2-yl}formamido)-3-cyclopentyl-N-cyclopropylpropanamide]: the IC50 turned out to be 0.293 µM. Take `Cc1ncc(Cl)cc1N[C@@H](C)c1ccc(C(=O)N[C@@H](C(=O)NC2CC2)C(C)(C)C)s1` [Compound 234, (2R)-2-({5-[(1S)-1-[(5-chloro-2-methylpyridin-3-yl)amino]ethyl]thiophen-2-yl}formamido)-N-cyclopropyl-3,3-dimethylbutanamide]: the IC50 was more than 10 µM. On to `Cc1ncc(Cl)cc1N[C@@H](C)c1ccc(C(=O)N[C@H](C(=O)NC2CC2)C(C)(C)C)s1` [Compound 235, (2S)-2-({5-[(1S)-1-[(5-chloro-2-methylpyridin-3-yl)amino]ethyl]thiophen-2-yl}formamido)-N-cyclopropyl-3,3-dimethylbutanamide], for which the 50% inhibitory concentration (IC50) was determined as 5.66 µM.

For the molecule `COc1ccc(-c2ncc(Cl)cc2N[C@@H](C)c2ccc(C(=O)N[C@@H](CC3CCCC3)C(=O)NC3CC3)s2)cc1` [Compound 236, (2S)-2-({5-[(1S)-1-{[5-chloro-2-(4-methoxyphenyl)pyridin-3-yl]amino}ethyl]thiophen-2-yl}formamido)-3-cyclopentyl-N-cyclopropylpropanamide], the IC50 was found to be 0.007 µM. For the molecule `Cc1ncc(Cl)cc1N[C@@H](C)c1ccc(C(=O)N[C@@H](CC2CCCC2)C(=O)NC2CC3(COC3)C2)s1` [Compound 237, (2S)-2-({5-[(1S)-1-[(5-chloro-2-methylpyridin-3-yl)amino]ethyl]thiophen-2-yl}formamido)-3-cyclopentyl-N-{2-oxaspiro[3.3]heptan-6-yl}propanamide], the IC50 stood at 0.008 µM. Regarding `COc1ccc(-c2ncc(Cl)cc2N[C@H](C)c2ccc(C(=O)N[C@@H](CC3CCCC3)C(=O)NC3CC3)s2)cc1` [Compound 238, (2S)-2-({5-[(1R)-1-{[5-chloro-2-(4-methoxyphenyl)pyridin-3-yl]amino}ethyl]thiophen-2-yl}formamido)-3-cyclopentyl-N-cyclopropylpropanamide], the IC50 amounted to 0.188 µM. With `C[C@@H](c1ccc(C(=O)N[C@@H](CC2CCCC2)C(=O)NC2CC2)s1)N1CCN(C)c2ccc(Cl)cc21` [Compound 239, (2S)-2-({5-[(1S)-1-(7-chloro-4-methyl-1,2,3,4-tetrahydroquinoxalin-1-yl)ethyl]thiophen-2-yl}formamido)-3-cyclopentyl-N-cyclopropylpropanamide], the IC50 is 0.038 µM. `C[C@H](c1ccc(C(=O)N[C@@H](CC2CCCC2)C(=O)NC2CC2)s1)N1CCN(C)c2ccc(Cl)cc21` [Compound 240, (2S)-2-({5-[(1R)-1-(7-chloro-4-methyl-1,2,3,4-tetrahydroquinoxalin-1-yl)ethyl]thiophen-2-yl}formamido)-3-cyclopentyl-N-cyclopropylpropanamide]: the IC50 was 0.154 µM. Take `COc1ccccc1-c1ncc(Cl)cc1N[C@H](C)c1ccc(C(=O)N[C@@H](CC2CCCC2)C(=O)NC2CC2)s1` [Compound 241, (2S)-2-({5-[(1R)-1-{[5-chloro-2-(2-methoxyphenyl)pyridin-3-yl]amino}ethyl]thiophen-2-yl}formamido)-3-cyclopentyl-N-cyclopropylpropanamide]: the IC50 worked out at 0.33 µM.

As for `COc1ccccc1-c1ncc(Cl)cc1N[C@@H](C)c1ccc(C(=O)N[C@@H](CC2CCCC2)C(=O)NC2CC2)s1` [Compound 242, (2S)-2-({5-[(1S)-1-{[5-chloro-2-(2-methoxyphenyl)pyridin-3-yl]amino}ethyl]thiophen-2-yl}formamido)-3-cyclopentyl-N-cyclopropylpropanamide], the IC50 was determined as 0.007 µM. With `Cc1ncc(Cl)cc1N[C@@H](C)c1ccc(C(=O)N[C@@H](CC2CCCC2)C(=O)Nc2ccc3ncccc3c2)s1` [Compound 243, (2S)-2-({5-[(1S)-1-[(5-chloro-2-methylpyridin-3-yl)amino]ethyl]thiophen-2-yl}formamido)-3-cyclopentyl-N-(quinolin-6-yl)propanamide], the IC50 amounted to 0.004 µM. In the case of `Cc1ncc(Cl)cc1N[C@@H](C)c1ccc(C(=O)N[C@@H](C[C@H]2CCC3CC32)C(=O)NC23CC(C2)C3)s1` (stereo partly drawn) [Compound 244, (2S)-N-{bicyclo[1.1.1]pentan-1-yl}-3-[(2R)-bicyclo[3.1.0]hexan-2-yl]-2-({5-[(1S)-1-[(5-chloro-2-methylpyridin-3-yl)amino]ethyl]thiophen-2-yl}formamido)propanamide] it was 0.005 µM; in that of `Cc1ncc(Cl)cc1N[C@@H](C)c1ccc(C(=O)N[C@@H](C[C@@H]2CCC3CC32)C(=O)NC23CC(C2)C3)s1` (stereo partly drawn) [Compound 245, (2S)-N-{bicyclo[1.1.1]pentan-1-yl}-3-[(2S)-bicyclo[3.1.0]hexan-2-yl]-2-({5-[(1S)-1-[(5-chloro-2-methylpyridin-3-yl)amino]ethyl]thiophen-2-yl}formamido)propanamide], 0.01 µM. For the molecule `Cc1ncc(Cl)cc1N[C@@H](C)c1ccc(C(=O)N[C@H](C(=O)NC23CC(C2)C3)C(C)(C)C)s1` [Compound 246, (2S)-N-{bicyclo[1.1.1]pentan-1-yl}-2-({5-[(1S)-1-[(5-chloro-2-methylpyridin-3-yl)amino]ethyl]thiophen-2-yl}formamido)-3,3-dimethylbutanamide], the IC50 is 2.21 µM. In the case of `Cc1ncc(Cl)cc1N[C@@H](C)c1ccc(C(=O)N[C@@H](C(=O)NC23CC(C2)C3)C(C)(C)C)s1` [Compound 247, (2R)-N-{bicyclo[1.1.1]pentan-1-yl}-2-({5-[(1S)-1-[(5-chloro-2-methylpyridin-3-yl)amino]ethyl]thiophen-2-yl}formamido)-3,3-dimethylbutanamide] it was more than 10 µM.
